6 molecules from PMC7563317, “Development of a Cationic Amphiphilic Helical Peptidomimetic (B18L) As A Novel Anti-Cancer Drug Lead” (Cancers, 2020) can be followed below.

Where two headings read alike, the source gives them in different places. Residues, ends and D or L forms follow the SMILES beside them.

Assay [1] has as its system PBMCs. Conditions: 24 h.
Method: (§1) Cells were plated at 5000 cells/well (cancer cells) or 10,000 cells/well (PBMCs) in a 96-well plate and allowed to attach for 24 h. Cells were then treated with various concentrations of compounds for the times indicated in the different figures. At each time point, the viability of cells was measured using MTT assay. In brief, each well was treated with 20 µL of MTT reagent (5 mg/mL in 1x DPBS) and incubated at 37 °C for 3 h. After 3 h, 100 µL of MTT solvent (90% Isopropanol, 10% Triton X-and 0.4% 1M HCl) was added to each well and the plate was covered from light while shaking for 20 min. The absorbance of solubilized MTT reagent was measured using spectrophotometer at 590 nm. In some experiments with PBMCs, the ATP assay was used to assess cell viability by following manufacture’s instruction. […] Cells were then incubated at 37 °C for the indicated time points on the figure and then treated with equivalent volume of CellTiter-Glo reagent. The plate was rocked for 10 min and luminescence intensity was read using spectrophotometer.
Assay [2] has as its system SKBR3. Particulars: 24 h.
Method: as §1
Assay [3] relates to MDA-MB-231. Particulars: 24 h.
Method: as §1
For assay [4], the system named is MCF-10a. Conditions: 24 h.
Method: as §1
Assay [5] deals with MCF7-G11-TR1. Conditions: 24 h.
Method: as §1
Assay [6] relates to MDA-MB-468. Particulars: 24 h.
Method: as §1
The subject of assay [7] is MCF7-G11-TR5. Particulars: 24 h.
Method: as §1
For assay [8], the system named is T47D. Conditions: 24 h.
Method: as §1
Assay [9] relates to ZR-75-1. Conditions: 24 h.
Method: as §1
Assay [10] deals with MCF7. Particulars: 24 h.
Method: as §1
For assay [11], the system named is recombinant BST-2 (rBST-2). Nature of the assay: UV absorbance (230 nm) centrifugal filter binding assay. Particulars: 2 mg/mL B18L, 1 mg/mL rBST-2, 37 °C 45 min, 3000 NMWL filter, 13,000 rpm 1 h, UV 230 nm. The procedure:
To validate the MD simulation data, we used UV absorbance based assay to assess the binding affinity of B18L to BST-2 (B18L•BST-2). Following incubation of B18L with rBST-2 or controls (B18L alone and rBST-2 alone) at 37 °C for 45 min, each compound or the B18L•BST-2 mixture was placed in centrifugal filters and spun at 13,000 rpm for 1 h (Figure 2I). Absorbance of compounds (i) prior to addition to the filter (input), (ii) on the apical side of the filter (retained), (iii) in the collection tube (flow through) were obtained and converted to compound concentration using the standard curves (Figure 2J).
B18L (MW = 1.683 kDa), the rBST-2 (MW = 5.832 kDa) and the mixture of B18L and rBST-2 (B18L•BST-2) were titrated with UV spectroscopy at 230 nm to obtain the standard curve. 2 mg/mL of B18L and 1 mg/mL of rBST-2 were preincubated at 37 °C for 45 min. 200 μL mixture was then subjected to the ultracentrifuge tube with 3000 NMWL filter and centrifuged at 13,000 rpm for 1 h. Absorbance of the compounds i) before spin designated as input, ii) compounds left on the apical side of the membrane designated as retained and iii) compounds in the basal side of the tube designated as the flow through were measured with UV spectroscopy. The standard curve was used to extrapolate protein concentrations from the absorbance measurements.

Regarding `CC(C)C[C@H](NC(=O)CN)C(=O)NCC(=O)N[C@@H](CCCCN)C(=O)N[C@@H](C)C(=O)N[C@@H](CC(C)C)C(=O)N[C@@H](C)C(=O)N[C@@H](CCCCN)C(=O)N[C@@H](C)C(=O)N[C@@H](CC(C)C)C(=O)N[C@@H](C)C(=O)N[C@@H](CS)C(=O)N[C@@H](CC(C)C)C(=O)N[C@@H](C)C(=O)N[C@@H](CCCCN)C(=O)N[C@@H](C)C(=O)N[C@@H](CC(C)C)C(=O)N[C@@H](C)C(=O)O` [B18L] (H-GLGKALAKALACLAKALA-OH), the IC50 in assay [1] was found to be 39.8 ± 3.8 µM; in assay [2], 7.2 ± 1 µM; in [3], 7.2 ± 0.8 µM; in [4] it was 17.2 ± 6.4 µM; in [5] it was 6.2 ± 0.8 µM; in assay [6] it was 12.4 ± 1.4 µM. The IC50 is 3.8 ± 0.3 µM in assay [7], 17.5 ± 6.5 µM in [8], 5.2 ± 1 µM in [9] and 5.9 ± 0.5 µM in assay [10].

For the molecule `CSCC[C@H](NC(=O)[C@@H](NC(=O)[C@@H](NC(=O)[C@H](Cc1c[nH]cn1)NC(=O)[C@H](CC(N)=O)NC(=O)[C@H](CS)NC(=O)[C@@H](NC(=O)[C@H](C)NC(=O)[C@H](C)NC(=O)[C@H](CCC(N)=O)NC(=O)[C@H](C)NC(=O)[C@H](CCCCN)NC(=O)[C@@H](NC(=O)[C@H](CCCCN)NC(=O)[C@H](CCC(N)=O)NC(=O)[C@H](Cc1ccccc1)NC(=O)CN)C(C)C)[C@@H](C)O)[C@@H](C)O)C(C)C)C(=O)N[C@@H](C)C(=O)O` [B18K] (H-GFQKVKAQAATCNHTVMA-OH; N-terminus and C-terminus assumed), the IC50 is > 131 µM in assay [3]; > 131 µM in assay [5]; > 131 µM in assay [6] (MDA-MB-468 (Basal A), MTT); > 131 µM in [7]; > 131 µM in assay [8]; > 131 µM in assay [9]. Further, the 50% inhibitory concentration (IC50) in [10] (MCF7 (drug-sensitive), MTT) is > 131 µM.

In the case of `CC(C)C[C@H](NC(=O)[C@H](C)NC(=O)[C@H](CCCCN)NC(=O)[C@H](C)NC(=O)[C@H](CC(C)C)NC(=O)[C@H](CS)NC(=O)[C@H](C)NC(=O)[C@H](CC(C)C)NC(=O)[C@H](C)NC(=O)[C@H](CCCCN)NC(=O)[C@H](C)NC(=O)[C@H](CCCCN)NC(=O)[C@H](C)NC(=O)[C@H](CCCCN)NC(=O)[C@H](CCC(N)=O)NC(=O)[C@H](Cc1ccccc1)NC(=O)CN)C(=O)N[C@@H](C)C(=O)O` [B18KA] (H-GFQKAKAKALACLAKALA-OH), the IC50 in [2] was determined as 43.5 ± 11.5 µM; in [3], 83.7 ± 20.1 µM; in [5], 61.8 ± 5.1 µM; in [6], 136 ± 9.3 µM; in assay [7], 56.4 ± 5 µM; in assay [8] it was 78.5 ± 20.9 µM. Also, the 50% inhibitory concentration (IC50) in assay [9] was 58.9 ± 2 µM; in assay [10], 61.8 ± 3.9 µM.

With `CSCC[C@H](NC(=O)[C@@H](NC(=O)[C@@H](NC(=O)[C@H](Cc1c[nH]cn1)NC(=O)[C@H](CC(C)C)NC(=O)[C@H](CS)NC(=O)[C@@H](NC(=O)[C@H](CC(C)C)NC(=O)[C@H](C)NC(=O)[C@H](CCC(N)=O)NC(=O)[C@H](C)NC(=O)[C@H](CCCCN)NC(=O)[C@@H](NC(=O)[C@H](CCCCN)NC(=O)[C@H](CCC(N)=O)NC(=O)[C@H](Cc1ccccc1)NC(=O)CN)C(C)C)[C@@H](C)O)[C@@H](C)O)C(C)C)C(=O)N[C@@H](C)C(=O)O` [B18KL] (H-GFQKVKAQALTCLHTVMA-OH; N-terminus and C-terminus assumed), the IC50 in assay [2], in [3], in [5], in assay [6], in assay [7] and in [8] was > 128 µM in each case. Besides, the IC50 in [9] and in assay [10] was > 128 µM each time.

On to `CC[C@H](C)[C@H](NC(=O)CN)C(=O)NCC(=O)N[C@@H](CCCCN)C(=O)N[C@@H](C)C(=O)N[C@H](C(=O)N[C@@H](C)C(=O)N[C@@H](CCCCN)C(=O)N[C@@H](C)C(=O)N[C@H](C(=O)N[C@@H](C)C(=O)N[C@@H](CS)C(=O)N[C@H](C(=O)N[C@@H](C)C(=O)N[C@@H](CCCCN)C(=O)N[C@@H](C)C(=O)N[C@H](C(=O)N[C@@H](C)C(=O)O)[C@@H](C)CC)[C@@H](C)CC)[C@@H](C)CC)[C@@H](C)CC` [B18I] (H-GIGKAIAKAIACIAKAIA-OH), for which the IC50 was 18.1 ± 4.7 µM in assay [2]; 18.6 ± 2.4 µM in assay [3]; 10.8 ± 2 µM in [5]; 16.6 ± 1.5 µM in assay [6]; 16.1 ± 4.9 µM in [7]; > 148 µM in assay [8]. Moreover, the IC50 came to 10.1 ± 1.8 µM in assay [9] and 16 ± 1.6 µM in assay [10].

B1: BST-2: recombinant BST-2 (MW = 5.832 kDa), extracellular domain, binding partner and control (protein, UniProt Q10589 49-161, looked up)
extracellular domain: NSEACRDGLRAVMECRNVTHLLQQELTEAQKGFQDVEAQAATCNHTVMALMASLDAEKAQGQKKVEELEGEITTLNHKLQDASAEVERLRRENQVLSVRIADKKYYPSSQDSS
modifications: extracellular domain
Consider B1, for which, in [11], the in the flow-through turned out to be 21% and the “retained on the apical side of the filter” value is on record as 78%.
